Assay results from ChEMBL document CHEMBL1129474, “Quinazoline antifolates thymidylate synthase inhibitors: lipophilic analogues with modification to the C2-methyl substituent” (J Med Chem, 1996).

Key:
Thymidylate synthase = Thymidylate synthase (Mus musculus, UniProt P07607); experiment: In vitro inhibitory activity against thymidylate synthase partially purified from L1210 mouse leukemia cells; format: cell-based
L1210 = experiment: In vitro inhibitory activity against L1210 cell growth; format: functional, cell-based; details: Mus musculus
[1] = Relative resistant ratio of compound as L1210:1565 IC50 over L1210 IC50; format: functional

Chain of Thymidylate synthase (P07607 whole entry): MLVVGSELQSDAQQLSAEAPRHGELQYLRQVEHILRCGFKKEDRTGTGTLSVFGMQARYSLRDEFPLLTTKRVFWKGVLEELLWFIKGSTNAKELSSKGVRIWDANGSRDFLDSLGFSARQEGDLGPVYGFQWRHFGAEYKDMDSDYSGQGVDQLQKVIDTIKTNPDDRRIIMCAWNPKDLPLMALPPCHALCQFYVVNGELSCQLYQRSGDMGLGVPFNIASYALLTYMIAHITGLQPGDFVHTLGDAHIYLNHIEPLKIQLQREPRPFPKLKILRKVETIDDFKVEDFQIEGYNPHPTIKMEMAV

Compound C#CCN(Cc1ccc2nc(CN(C)CCN(C)C)nc(O)c2c1)c1ccc(C(=O)NCc2cccc([N+](=O)[O-])c2)cc1 has an IC50 (Thymidylate synthase) of 0.82 µM and an IC50 (L1210) of 5 µM.
Work on C#CCN(Cc1cc2c(O)nc(CN(C)C)nc2cc1C)c1ccc(C(=O)NCc2cccc([N+](=O)[O-])c2)c(F)c1 yielded an IC50 (L1210) of 0.68 µM and a Ratio [1] of 0.76.
With C#CCN(Cc1ccc2nc(CN)nc(O)c2c1)c1ccc(C(=O)NCc2cccc([N+](=O)[O-])c2)cc1 the IC50 (Thymidylate synthase) was > 1.7 µM and the IC50 (L1210) was > 20 µM.
In the case of C#CCN(Cc1cc2c(O)nc(CO)nc2cc1C)c1ccc(C(=O)NCc2cccc([N+](=O)[O-])c2)c(F)c1, the IC50 (Thymidylate synthase) is reported as 0.072 µM, the IC50 (L1210) is reported as 0.7 µM and the Ratio [1] is reported as 0.17.
Work on C#CCN(Cc1ccc2nc(C)nc(O)c2c1)c1ccc(C(=O)NC(CCC(=O)O)C(=O)O)cc1 (configuration not stated) yielded an IC50 (L1210) of 0.15 µM.
Work on C#CCN(Cc1cc2c(O)nc(C)nc2cc1C)c1ccc(C(=O)NCc2cccc([N+](=O)[O-])c2)c(F)c1 yielded an IC50 (L1210) of 0.26 µM and a Ratio [1] of 1.
Work on C#CCN(Cc1ccc2nc(CO)nc(O)c2c1)c1ccc(C(=O)NCc2cccc([N+](=O)[O-])c2)cc1 yielded an IC50 (Thymidylate synthase) of 0.3 µM and an IC50 (L1210) of 4.8 µM.
C#CCN(Cc1cc2c(O)nc(CN(C)CCN(C)C)nc2cc1C)c1ccc(C(=O)NCc2cccc([N+](=O)[O-])c2)c(F)c1 showed an IC50 (Thymidylate synthase) of 0.2 µM and an IC50 (L1210) of 0.95 µM.
C#CCN(Cc1cc2c(O)nc(CSc3ncccn3)nc2cc1C)c1ccc(C(=O)NCc2cccc([N+](=O)[O-])c2)c(F)c1 showed an IC50 (L1210) of 0.64 µM and a Ratio [1] of 0.65.
C#CCN(Cc1cc2c(=O)[nH]c(CSc3ncccn3)nc2cc1C)c1ccc(C(=O)NCc2cccc([N+](=O)[O-])c2)c(F)c1 showed an IC50 (Thymidylate synthase) of 0.11 µM.
With Cc1cc2nc(CN3CCN(C)CC3)nc(O)c2cc1CN(C)c1ccc(C(=O)NC(CCC(=O)O)C(=O)O)c(F)c1 (configuration not stated) the IC50 (Thymidylate synthase) was 0.028 µM and the IC50 (L1210) was > 20 µM.
With C#CCN(Cc1ccc2nc(CNS(C)(=O)=O)nc(O)c2c1)c1ccc(C(=O)NCc2cccc([N+](=O)[O-])c2)cc1 the IC50 (Thymidylate synthase) was 0.18 µM and the IC50 (L1210) was > 20 µM.
C#CCN(Cc1ccc2nc(CSc3nc(N)cc(O)n3)nc(O)c2c1)c1ccc(C(=O)NCc2cccc([N+](=O)[O-])c2)cc1 showed an IC50 (Thymidylate synthase) of 1.04 µM and an IC50 (L1210) of 14 µM.
For Cc1cc2nc(CO)nc(O)c2cc1CN(C)c1ccc(C(=O)NCc2cccc([N+](=O)[O-])c2)c(F)c1, the IC50 (Thymidylate synthase) was 0.08 µM and the IC50 (L1210) was 0.7 µM.
Compound C#CCN(Cc1cc2c(O)nc(CN(CCO)CCO)nc2cc1C)c1ccc(C(=O)NCc2cccc([N+](=O)[O-])c2)c(F)c1 has an IC50 (Thymidylate synthase) of 0.16 µM and an IC50 (L1210) of 7.8 µM.
In the case of C#CCN(Cc1ccc2nc(C)nc(O)c2c1)c1ccc(C(=O)NCc2cccc([N+](=O)[O-])c2)cc1, the IC50 (L1210) is reported as 1.4 µM and the Ratio [1] is reported as 0.3.
Cc1nc2cc(C)c(CN(C)c3ccc(C(=O)NCc4cccc([N+](=O)[O-])c4)c(F)c3)cc2c(=O)[nH]1 gave an IC50 (Thymidylate synthase) of 0.056 µM and an IC50 (L1210) of 0.076 µM.
In the case of C#CCN(Cc1ccc2nc(CNC)nc(O)c2c1)c1ccc(C(=O)NCc2cccc([N+](=O)[O-])c2)cc1, the IC50 (Thymidylate synthase) is reported as 4.2 µM and the IC50 (L1210) is reported as 7.8 µM.
Compound C#CCN(Cc1ccc2nc(COCCOC)nc(O)c2c1)c1ccc(C(=O)NCc2cccc([N+](=O)[O-])c2)cc1 has an IC50 (Thymidylate synthase) of 0.64 µM and an IC50 (L1210) of 6.7 µM.
Compound C#CCN(Cc1ccc2nc(CSc3nccc(O)n3)nc(O)c2c1)c1ccc(C(=O)NCc2cccc([N+](=O)[O-])c2)cc1 has an IC50 (Thymidylate synthase) of 3.3 µM and an IC50 (L1210) of 12 µM.
C#CCN(Cc1ccc2nc(CSc3nccc(N)n3)nc(O)c2c1)c1ccc(C(=O)NCc2cccc([N+](=O)[O-])c2)cc1 gave an IC50 (Thymidylate synthase) of 0.84 µM and an IC50 (L1210) of 2.2 µM.
C#CCN(Cc1ccc2nc(CN3CCC(O)C3)nc(O)c2c1)c1ccc(C(=O)NCc2cccc([N+](=O)[O-])c2)cc1 (configuration not stated) gave an IC50 (Thymidylate synthase) of 0.6 µM and an IC50 (L1210) of 9 µM.
In the case of C#CCN(Cc1cc2c(O)nc(CN3CCOCC3)nc2cc1C)c1ccc(C(=O)NCc2cccc([N+](=O)[O-])c2)c(F)c1, the IC50 (Thymidylate synthase) is reported as 0.1 µM, the IC50 (L1210) is reported as 0.34 µM and the Ratio [1] is reported as 1.1.
Compound C#CCN(Cc1ccc2nc(CCl)nc(O)c2c1)c1ccc(C(=O)NCc2cccc([N+](=O)[O-])c2)cc1 has an IC50 (Thymidylate synthase) of 1.21 µM and an IC50 (L1210) of 2.4 µM.
Compound C#CCN(Cc1ccc2nc(CC#N)nc(O)c2c1)c1ccc(C(=O)NCc2cccc([N+](=O)[O-])c2)cc1 has an IC50 (Thymidylate synthase) of 0.38 µM and an IC50 (L1210) of 11 µM.
Work on C#CCN(Cc1ccc2nc(C)nc(O)c2c1)c1ccc(C(=O)NC(Cc2cccc([N+](=O)[O-])c2)C(=O)O)cc1 (configuration not stated) yielded an IC50 (Thymidylate synthase) of 0.01 µM and an IC50 (L1210) of 9 µM.
With C#CCN(Cc1ccc2nc(CSc3ncccn3)nc(O)c2c1)c1ccc(C(=O)NCc2cccc([N+](=O)[O-])c2)cc1 the IC50 (Thymidylate synthase) was 0.48 µM and the IC50 (L1210) was 2 µM.
For C#CCN(Cc1ccc2nc(CSc3ncccn3)nc(O)c2c1)c1ccc(C(=O)NC(CCC(=O)O)C(=O)O)cc1 (configuration not stated), the IC50 (L1210) was 100 µM.
Compound C#CCN(Cc1ccc2nc(CN3CCOCC3)nc(O)c2c1)c1ccc(C(=O)NCc2cccc([N+](=O)[O-])c2)cc1 has an IC50 (Thymidylate synthase) of 0.38 µM and an IC50 (L1210) of 1.9 µM.
Compound Cc1cc2nc(CN(C)C)nc(O)c2cc1CN(C)c1ccc(C(=O)NCc2cccc([N+](=O)[O-])c2)c(F)c1 has an IC50 (Thymidylate synthase) of 0.084 µM and an IC50 (L1210) of 0.58 µM.
In the case of C#CCN(Cc1ccc2nc(CN3CCN(C)CC3)nc(O)c2c1)c1ccc(C(=O)NCc2cccc([N+](=O)[O-])c2)cc1, the IC50 (Thymidylate synthase) is reported as 0.9 µM and the IC50 (L1210) is reported as 5.3 µM.
For C#CCN(Cc1ccc2nc(CN(C)C)nc(O)c2c1)c1ccc(C(=O)NCc2cccc([N+](=O)[O-])c2)cc1, the IC50 (Thymidylate synthase) was 0.62 µM and the IC50 (L1210) was 2.7 µM.
Work on C#CCN(Cc1cc2c(=O)[nH]c(CN(C)C)nc2cc1C)c1ccc(C(=O)NCc2cccc([N+](=O)[O-])c2)c(F)c1 yielded an IC50 (Thymidylate synthase) of 0.14 µM.
In the case of C#CCN(Cc1cc2c(O)nc(CN3CCN(C)CC3)nc2cc1C)c1ccc(C(=O)NCc2cccc([N+](=O)[O-])c2)c(F)c1, the IC50 (Thymidylate synthase) is reported as 0.11 µM, the IC50 (L1210) is reported as 0.58 µM and the Ratio [1] is reported as 1.1.
